Patent US20100311694A1, “Set of Geldanamycin Derivatives and Their Preparation Methods” (Institute of Medicinal Biotechnology, Chinese Academy of …, priority 2008, published 2010)

Tests used:
[1] = system: HIV-1; experiment: Anti HIV-1 activity (HIV-1 P24 antigen in cell cultures); type: cell-based; conditions: 4 days after addition of the reagents
Description: Test Procedure of Anti HIV-1 Activity
8 reagent solutions of different diluted concentrations and positive control solutions are added into cell cultures in 96 well plate respectively. The sample of each diluted solutions is made duplicately and a control cell sample is also is set up. 100 μl of cell sample at a concentration of 2×10^5cells/ml is inoculated into the wells containing reagent in the plate. The cells samples are cultured in a saturated humidity culture chamber (at a 5% CO2 atmosphere) at 37° C. The pathological changes of cells are observed daily.

[2] = system: HBV; experiment: Anti-HBV activity (HBV DNA in cell lysate, spot hybridization); type: cell-based; conditions: HBV DNA content of the cells, reagent solution changed every 4 days
Description: Test Procedure for Anti-HBV Activity
Using cell culture method, the preparation of the cells to be tested (100,000 cell's/mL) is inoculated into cell culture plate in 100 μl each well and the cells are cultured 24 h at 37° C. in 5% CO2. Tests are carried out when the cells grow into a monolayer. The target compounds as well as the controls are prepared into a series of solutions of appropriate concentrations using the culture medium and are added into 96 well culture plate respectively in 4 wells per one concentration. Then the reagent solution in each well is changed into the fresh reagent solution with the same concentration every 4 days. A cell control without reagent treatment is simultaneously is set up. The observation index is based upon the pathological changes of the cells by observing the degrees of the pathological changes of the cells under microscope every 8 days. […] Cell control without drug treatment is simultaneously is set up. The reagent solution or control medium in each well is changed into the fresh reagent solution or fresh medium respectively every 4 days. After cytolysis of the cells, HBV DNA is extracted from the cell lysis solution according to the molecular cloning technical procedure. The spots of different samples are hybridized and the A values of different hybridized spots are measured using autoradiograghic technique. The HBV DNA contents in the cell control as well as in the drug treated samples are calculated using the regression equations obtained from the standard curves to obtain half effective concentration values, the results are shown in Table 1.

Row | Compound | Activity of HIV inhibition IC50 [1] [µg/mL] | Activity of HBV inhibition IC50 [2] [µg/mL]
1 | COC1C=CC=C(C)C(=O)NC2=CC(=O)C(NCc3cccs3)=C(CC(C)CC(OC)C(O)C(C)C=C(C)C1OC(N)=O)C2=O (centres unmarked) [GM-W50] | 1.57 | 0.64
2 | COC1C=CC=C(C)C(=O)NC2=CC(=O)C(NC(CO)c3cc(Cl)cc(Cl)c3)=C(CC(C)CC(OC)C(O)C(C)C=C(C)C1OC(N)=O)C2=O (centres unmarked) [GM-W81] | 2.46 | 2.3
3 | COC1C=CC=C(C)C(=O)NC2=CC(=O)C(NCCCN(CCO)CCO)=C(CC(C)CC(OC)C(O)C(C)C=C(C)C1OC(N)=O)C2=O (centres unmarked) [GM-W43] | 0.87 | 0.64
4 | COC1C=CC=C(C)C(=O)NC2=CC(=O)C(NC3CCNCC3)=C(CC(C)CC(OC)C(O)C(C)C=C(C)C1OC(N)=O)C2=O (centres unmarked) [GM-W37] | 1.43 | 1.32
5 | COC1C=CC=C(C)C(=O)NC2=CC(=O)C(NCC3(O)CCCCC3)=C(CC(C)CC(OC)C(O)C(C)C=C(C)C1OC(N)=O)C2=O (centres unmarked) [GM-W65] | 6.81 | 3.1
6 | COC1C=CC=C(C)C(=O)NC2=CC(=O)C(NCCS(=O)(=O)O)=C(CC(C)CC(OC)C(O)C(C)C=C(C)C1OC(N)=O)C2=O (centres unmarked) [GM-W5] | 10.26 | 6.4
7 | COC1C=CC=C(C)C(=O)NC2=CC(=O)C(NCCCN3CCOCC3)=C(CC(C)CC(OC)C(O)C(C)C=C(C)C1OC(N)=O)C2=O (centres unmarked) [GM-W75] | 1.21 | 0.1
8 | COC1C=CC=C(C)C(=O)NC2=CC(=O)C(NCc3ccncc3)=C(CC(C)CC(OC)C(O)C(C)C=C(C)C1OC(N)=O)C2=O (centres unmarked) [GM-W1] | 36.7 | 0.69
9 | COC1C=CC=C(C)C(=O)NC2=CC(=O)C(NCCc3ccc(N)cc3)=C(CC(C)CC(OC)C(O)C(C)C=C(C)C1OC(N)=O)C2=O (centres unmarked) [GM-W10] | 40.71 | 6.4
10 | C=CC(C)(CCC=C(C)CCC=C(C)CCC=C(C)C)OC(=O)CCCNC1=C2CC(C)CC(OC)C(O)C(C)C=C(C)C(OC(N)=O)C(OC)C=CC=C(C)C(=O)NC(=CC1=O)C2=O (centres unmarked) [GM-W84] | 1.24 | 0.8
11 | 17-diethyloxy phosphoryl methylene amino-17-demethoxy geldanamycin [GM-GP] | 1.36 | 3.24
12 | COC1C=CC=C(C)C(=O)NC2=C(NCC3CCCO3)C(=O)C(NCC3CCCO3)=C(CC(C)CC(OC)C(O)C(C)C=C(C)C1OC(N)=O)C2=O [THFM + 2, 17,19-di-(S)-tetrahydrofurfuryl amino-17-demethoxy geldanamycin] | 0.18 | 0.10
13 | CO[C@H]1/C=C/C=C(\C)C(=O)NC2=CC(=O)C(NC[C@H]3CCCO3)=C(C[C@H](C)C[C@H](OC)[C@H](O)[C@@H](C)/C=C(\C)[C@H]1OC(N)=O)C2=O [THFM(R)-GM, 2′R-17-tetrahydrofurfurylamino-17-demethoxy geldanamycin] | 0.05 | 0.01
14 | COC1C=CC=C(C)C(=O)NC2=CC(=O)C(NCc3cccnc3)=C(CC(C)CC(OC)C(O)C(C)C=C(C)C1OC(N)=O)C2=O (centres unmarked) [GM-W20] | 26.42 | 6.89
15 | COC1C=CC=C(C)C(=O)NC2=CC(=O)C(NCC(C)(C)CO)=C(CC(C)CC(OC)C(O)C(C)C=C(C)C1OC(N)=O)C2=O (centres unmarked) [GM-W16] | 0.43 | 0.064
16 | COC1C=CC=C(C)C(=O)NC2=CC(=O)C(NN3CCCCC3)=C(CC(C)CC(OC)C(O)C(C)C=C(C)C1OC(N)=O)C2=O (centres unmarked) [GM-W11] | 3.87 | 8.0
17 | COC1C=CC=C(C)C(=O)NC2=CC(=O)C(NCC3CCCCN3)=C(CC(C)CC(OC)C(O)C(C)C=C(C)C1OC(N)=O)C2=O (centres unmarked) [GM-W22] | 1.37 | 3.2
18 | CCN1CCC[C@H]1CNC1=C2C[C@H](C)C[C@H](OC)[C@H](O)[C@@H](C)/C=C(\C)[C@@H](OC(N)=O)[C@@H](OC)/C=C/C=C(\C)C(=O)NC(=CC1=O)C2=O [GM-206S, 17-(2″S-2″-(N-ethylpyrrolidinyl)-methylamino)-17-demethoxy geldanamycin] | 0.01 | 0.064
19 | COC1C=CC=C(C)C(=O)NC2=CC(=O)C(NCCN3CCCC3)=C(CC(C)CC(OC)C(O)C(C)C=C(C)C1OC(N)=O)C2=O (centres unmarked) [GM-W52] | 0.65 | 0.32
20 | COC1C=CC=C(C)C(=O)NC2=CC(=O)C(NCC3CCNCC3)=C(CC(C)CC(OC)C(O)C(C)C=C(C)C1OC(N)=O)C2=O (centres unmarked) [GM-AMPP] | 0.06 | 8.0
21 | COc1ccc(C=CC(=O)NCCNC2=C3C[C@H](C)C[C@H](OC)[C@H](O)[C@@H](C)/C=C(\C)[C@@H](OC(N)=O)[C@@H](OC)/C=C/C=C(\C)C(=O)NC(=CC2=O)C3=O)cc1OC [GM-413, 17-(2′-(3″,4″-dimethylcaffeoyl amido)ethylamino)-17-demethoxy geldanamycin] | 0.48 | 0.32
22 | COC1C=CC=C(C)C(=O)NC2=CC(=O)C(NC3CCN(Cc4ccccc4)CC3)=C(CC(C)CC(OC)C(O)C(C)C=C(C)C1OC(N)=O)C2=O (centres unmarked) [GM-ABPD, 17-(4′-benzyl-4′-azacyclohexylamino)-17-demethoxy geldanamycin] | <0.03 | 0.32
23 | 17-(4′-((5″-(4′″-amino-2′″-oxopyrimidine-1′″-(2H)-yl)-3″,4″-dihydroxyl-tetrahydrofuran-2″yl)methoxyl)-4′-oxobutylamino)-17-de methoxy geldanamycin [GM-CY] | 0.02 | 0.032
24 | CCN(CCNC1=C2CC(C)CC(OC)C(O)C(C)C=C(C)C(OC(N)=O)C(OC)C=CC=C(C)C(=O)NC(=CC1=O)C2=O)c1cccc(C)c1 (centres unmarked) [GM-W30] | 10.89 | 5.6
25 | COC1C=CC=C(C)C(=O)NC2=CC(=O)C(NCCCC(=O)OCC=C(C)CCC=C(C)CCC=C(C)C)=C(CC(C)CC(OC)C(O)C(C)C=C(C)C1OC(N)=O)C2=O (centres unmarked) [GM-W85] | 0.78 | 0.01
